Read-outs that look alike come from different tables or passages of the source.
What was measured:
[1] = tested on: HCT116 human colon cancer cells; assay: MTT colorimetric proliferation / cell survival assay, HCT116; settings: for Cell survival rate (%): compound alone, others not given; for Cell survival rate (%) / Cell survival rate after addition of 10 μM auranofin (%): with 30% FBS, 50 μM for TGTA, β-mercaptoethanol, mercaptoethylamine, DEDT; for Cell survival rate after addition of 10 μM auranofin (%): compound plus 10 μM auranofin, listed as Auranofin = auranofin alone
[2] = tested on: acute lymphocytic leukemia cell P388; settings: mice inoculated with P388; earlier studies; cited from earlier work
[3] = tested on: HepG2 cells; assay: Cell uptake of auranofin (gold by ICP-MS) in HepG2 cells; type: cell-based, human
Protocol: (§1) HepG2 cells were used as a test subject.
(§2) The cells were inoculated into a 6-well plate at 2×10^5 cell/well and incubated for 24 h.
After the incubation, the cell culture medium was replaced with 30% of FBS to stimulate a high-concentration mercapto environment under the normal physiological condition, and used as a control (without adding any reagents). The experimental group was added with 3 μM of auranofin for incubation at 37° C. for 10 min and then added with the mercapto compound (DEDT, β-mercaptoethanol or mercaptoethylamine) for incubation for 1 h (final concentration of DMSO in the system was 1%). After incubation, the cells were immediately washed for 3 times with PBS, 500 μL of ultrapure water was added to each well to break the cells, and after 15 min, the cell lysate was collected.
The collected cell lysate was dissolved by adding aqua regia and diluted with ultrapure water to a proper proportion. Inductively coupled plasma mass spectrometry (ICP-MS) was used for gold detection. The cell uptake rate of 3 μM […] without FBS was used as the control.
Wherein, the above uptake is the amount of gold (mg) in 1 g protein in the cell.

[4] = tested on: TrxR; assay: Intracellular TrxR activity in HepG2 cells (DTNB reduction); type: cell-based, human
Protocol: as §1, §2
After the incubation, the cell culture medium was replaced with 30% FBS to simulate the high concentration mercapto environment under the normal physiological condition, and used as a control (without adding any reagents). The experimental group was added with 0.5 μM of auranofin for incubation at 37° C. for 30 min, and then added with the mercapto compound (DEDT, β-mercaptoethanol or mercaptoethylamine) for incubation for 30 min (final concentration of DMSO in the system was ≤1%). The incubated cells were washed for 3 times with PBS, added with 100 μL of icy lysis buffer (containing 50 mM of phosphate buffer with pH 7.4, 1 mM EDTA, and 0.10% Triton-X 100), and then lysed on ice for 5 min to collect the cell lysate.
100 μL of buffer (containing 50 mM of potassium phosphate with pH 7.4, 1 mM EDTA, and 0.2 mM NADPH) was added to the collected cell lysate (10 μg protein), 5,5′-dithiobis (2-nitrobenzoic acid) (DTNB, with a final concentration of 3 mM) was added to initiate a reaction, and the activity of TrxR was obtained on the basis of the increased OD value in 10 minutes (OD detection wavelength was 410 nm). Auranofin alone was the positive control sample, and the blank group was the negative control.

[5] = tested on: solid tumor models; settings: several solid tumor models; intraperitoneal injection; follow-up studies; cited from earlier work
[6] = tested on: PC9 human lung cancer cells; assay: MTT cell survival assay, PC9; type: cell-based; settings: TGTA 50 μM
Protocol: (§3) A flask with the cancer cells required for the experiment, with an original culture solution discarded, was washed for three times with 2 mL of PBS, 1 mL of pancreatin was added for digestion for 30 s, and 2 mL of a medium was added to terminate the digestion. The cells were transferred to a centrifuge tube and centrifuged at 1000 rpm for 3 min, the supernatant was discarded, and 2 mL of a medium was added and blew 10 times to be mixed uniformly. 10 μL of a cell suspension was taken for cell counting, and spread on a 96-well plate, with 5000 cells per well and 3 duplications for each compound, and then the number of cells and cell wells was calculated. The amount of required cell suspension and the number of cells for medium dilution were calculated by cell counting. 100 μL of medium was plated with 5000 cells per well, pipetted and mixed uniformly, and the cells were inoculated using a volley, placed in an incubator for culture, and marked. […]
(§4) According to the results of Table 1-2, the killing effect of auranofin in combination with various compounds (with 30% FBS) on HCT116 human colon cancer cells and the killing effect of the auranofin-TGTA (50 μM) in combination with other cancer cells (lung cancer, colon cancer, breast cancer, liver cancer, cervical cancer and gastric cancer cells) were further detected by using the same method as the above.

[7] = tested on: colon cancer cell HCT116 xenograft; assay: Mouse tumor model, HCT116 xenograft; type: in vivo, BALB/Cann nu (Nude) mice; settings: HCT116 xenograft in nude mice; intraperitoneal once a day; auranofin 3 mg/kg/day, mercapto compound (β-mercaptoethanol or TGTA) 40 mg/kg/day
Protocol: Establishment of mouse tumor model: 2 million colon cancer cell HCT116 cells suspended in PBS were injected subcutaneously into the dorsal side of 5-7 week-old female BALB/Cann nu (Nude) mice to establish a xenograft model.
When the tumor volume reached about 50 mm^3 (3-4 days after tumor inoculation), mice were randomly divided into a control group and a treatment group, the control group was treated with corn oil, the treatment group was intraperitoneally injected with auranofin (3 mg/kg mouse body weight/day) in combination with various mercapto compounds (β-mercaptoethanol or TGTA, 40 mg/kg mouse body weight/day) once a day. When the tumor volume grew to 1000 mm^3, the mice were anesthetized and then sacrificed by dislocation of the cervical spine.

[8] = tested on: MCF-7 human breast cell cancer cells; assay: MTT colorimetric proliferation / cell survival assay, MCF-7; type: cell-based
Protocol: (§5) A flask with the cancer cells required for the experiment, with an original culture solution discarded, was washed for three times with 2 mL of PBS, 1 mL of pancreatin was added for digestion for 30 s, and 2 mL of a medium was added to terminate the digestion. The cells were transferred to a centrifuge tube and centrifuged at 1000 rpm for 3 min, the supernatant was discarded, and 2 mL of a medium was added and blew 10 times to be mixed uniformly. 10 μL of a cell suspension was taken for cell counting, and spread on a 96-well plate, with 5000 cells per well and 3 duplications for each compound, and then the number of cells and cell wells was calculated. The amount of required cell suspension and the number of cells for medium dilution were calculated by cell counting. 100 μL of medium was plated with 5000 cells per well, pipetted and mixed uniformly, and the cells were inoculated using a volley, placed in an incubator for culture, and marked.
(§6) (2) The cells cultured in step (1) was taken, and discarded with the original medium. Auranofin mother liquor was diluted to a diluent with final concentrations of 0, 0.78125, 1.5625, 3.125, 6.25, 12.5, 25, 50 and 100 μM, and mixed uniformly. A volley (using 3 wells) was used to draw 100 μL of dilution per well, a 96-well plate was tilted, diluents with each concentration were added in sequence to the corresponding 3 marked wells carefully to prevent poking the cells, blown and sucked about 3 times to be mixed uniformly, marked, shaken for 3 times, and put into a CO2 incubator for culture. The above steps were repeated for each auranofin diluent.
(§7) After auranofin was added for culture for 1 hour, the mother liquor of the mercapto compound was diluted into […] and mixed uniformly. A volley (using 3 wells) was used to suck 20 μL of diluent per well, the 96-well plate was tilted, the diluents of different mercapto compounds were added in sequence to the corresponding 3 marked wells carefully to prevent poking the cells, blown and sucked about 3 times to be mixed uniformly, and put back to the incubator to continue culture.
(§8) After different mercapto compounds were added to cells for 24 h, 20 μL of MTT (with a concentration of 5 mg/mL in PBS) per well was added to the 96-well plate by a volley; and incubation was carried out at 37° C. for 4 h. At the end of incubation, the MTT mixture was sucked out, and DMSO was added at 130 μL/well using a volley.
as §4

[9] = tested on: HepG-2 human liver cancer cells; assay: MTT colorimetric proliferation / cell survival assay, HepG-2; type: cell-based
Protocol: as §5, §6, §7, §8, §4

[10] = tested on: MGC803 human gastric cancer cells; assay: MTT cell survival assay, MGC803; type: cell-based; settings: TGTA 50 μM
Protocol: as §3, §4

[11] = tested on: Hela human cervical cancer cells; assay: MTT cell survival assay, Hela; type: cell-based; settings: TGTA 50 μM
Protocol: as §3, §4

[12] = tested on: PCGR lung cancer cells; assay: MTT cell survival assay, PCGR; type: cell-based; settings: TGTA 50 μM
Protocol: as §3, §4

[13] = tested on: A549 human lung cancer cells; assay: MTT colorimetric proliferation / cell survival assay, A549; type: cell-based
Protocol: as §5, §6, §7, §8, §4

[14] = tested on: HCT-8 human colon adenocarcinoma cells; assay: MTT colorimetric proliferation assay, HCT-8; type: cell-based; settings: containing 40 mg/mL BSA; 200 μM of added compound
Protocol: as §5
(2) The cells cultured in step (1) was taken, and discarded with the original medium. Auranofin mother liquor was diluted to a diluent with final concentrations of 0, 0.78125, 1.5625, 3.125, 6.25, 12.5, 25, 50 and 100 μM, and mixed uniformly. […]

O[C@H](CS)[C@H](O)CS (racemic) [Dithiothreitol (DTT), Dithiothreitol]
Cell survival rate (%) [1]: 102 ± 4% | Cell survival rate after addition of 10 μM auranofin (%) [1]: 88 ± 6%

CC(=O)OC[C@H]1O[C@@H]([S-])[C@H](OC(C)=O)[C@@H](OC(C)=O)[C@@H]1OC(C)=O.CCP(CC)CC.[Au+] [Auranofin]
life span of mice [2]: effectively prolong the life span | uptake of gold [3]: 728 mg/g protein | Activity of TrxR ([4]; 0.5 μM auranofin alone, with 30% FBS): 63.6% | Activity of TrxR ([4]; 0.5 μM auranofin alone, with 30% FBS, listed as Positive control): 63.6% | Activity of TrxR ([4]; 0.5 μM auranofin alone, without FBS, relative to negative control 100%): 15.9% | Activity of TrxR ([4]; 0.5 μM auranofin alone, without FBS, relative to negative control 100%, listed as Positive control): 15.9% | life span of mice and growth of tumors [5]: could neither prolong the life span of mice nor inhibit the growth of tumors | Cell survival rate (%) PC9 [6]: 93 ± 3% | growth of tumors [7]: not effectively inhibited | IC50 ([8]; auranofin alone, without BSA/FBS, read-out: IC50 MCF-7 Human breast cell cancer cells): 3.4 µM | Cell survival rate (%) MCF-7 ([8]; breast cancer, TGTA 50 μM): 80 ± 2% | IC50 ([8]; containing 40 mg/mL BSA, 200 μM of added compound, read-out: IC50 MCF-7 Human breast cell cancer cells): 39.7 µM | IC50 ([8]; under the normal physiological condition, auranofin alone, read-out: IC50 value, proliferation of MCF-7 human breast cell cancer cells): > 30 µM | IC50 ([8]; with 10% FBS, mercapto compound added 1 h after auranofin, MTT after 24 h, read-out: IC50 MCF-7 Human breast cell cancer cells): 5.7 µM | Cell survival rate (%) HepG2 ([9]; Liver cancer, TGTA 50 μM): 87 ± 1% | IC50 ([9]; auranofin alone, without BSA/FBS, read-out: IC50 HepG2 Human liver cancer cells): 1.3 µM | IC50 ([9]; containing 40 mg/mL BSA, 200 μM of added compound, read-out: IC50 HepG-2 Human liver cancer cells): 16.6 µM | IC50 ([9]; under the normal physiological condition, auranofin alone, read-out: IC50 value, proliferation of HepG-2 human liver cancer cells): > 30 µM | IC50 ([9]; with 10% FBS, mercapto compound added 1 h after auranofin, MTT after 24 h, read-out: IC50 HepG-2 Human liver cancer cells): 3 µM | Cell survival rate (%) MGC803 [10]: 79 ± 3% | Cell survival rate (%) Hela [11]: 46 ± 7% | Cell survival rate (%) PCGR [12]: 37 ± 4% | Cell survival rate (%) A549 ([13]; Lung cancer, TGTA 50 μM): 81 ± 7% | IC50 ([13]; auranofin alone, without BSA/FBS, read-out: IC50 A549 Human lung cancer cells): 4.2 µM | IC50 ([13]; containing 40 mg/mL BSA, 200 μM of added compound, read-out: IC50 A549 Human lung cancer cells): 70.5 µM | IC50 ([13]; under the normal physiological condition, auranofin alone, read-out: IC50 value, proliferation of A549 human lung cancer cells): > 30 µM | IC50 ([13]; with 10% FBS, mercapto compound added 1 h after auranofin, MTT after 24 h, read-out: IC50 A549 Human lung cancer cells): 12.9 µM | IC50 [14]: 33.2 µM | Cell survival rate (%) HCT116 ([1]; colon cancer, TGTA 50 μM): 75 ± 5% | Cell survival rate after addition of 10 μM auranofin (%) [1]: 75 ± 5% | IC50 ([1]; read-out: IC50 HCT116 Human colon cancer cells, auranofin alone, without BSA/FBS): 1 µM | IC50 ([1]; read-out: IC50 HCT116 Human colon cancer cells, with 10% FBS, mercapto compound added 1 h after auranofin, MTT after 24 h): 3.4 µM | IC50 ([1]; read-out: IC50 HCTI16 Human colon cancer cells, containing 40 mg/mL BSA, 200 μM of added compound): 30 µM | IC50 ([1]; read-out: IC50 value, proliferation of HCT116 human colon cancer cells, under the normal physiological condition, auranofin alone): > 30 µM

CCN(CC)C(=S)[S-].[Na+] [DEDT, Sodium diethyldithiocarbamate]
Activity of TrxR ([4]; mercapto compound alone 200 μM, 30% FBS): 88.6% | Cell survival rate (%) [1]: 78 ± 10% | Cell survival rate after addition of 10 μM auranofin (%) [1]: 0.9 ± 1.6%

N[C@@H](CCC(=O)N[C@@H](CS)C(=O)NCC(=O)O)C(=O)O [Glutathione (GSH), Glutathione]
Cell survival rate (%) [1]: 116 ± 6% | Cell survival rate after addition of 10 μM auranofin (%) [1]: 81 ± 7%

Cn1cc[nH]c1=S [Methimazole]
Cell survival rate (%) [1]: 98 ± 9% | Cell survival rate after addition of 10 μM auranofin (%) [1]: 87 ± 5%

CC(=O)N[C@@H](CS)C(=O)O [N-acetylcysteine (NAC), N-acetylcysteine]
Cell survival rate (%) [1]: 100 ± 6% | Cell survival rate after addition of 10 μM auranofin (%) [1]: 77 ± 17%
